The test system of data set [1] is blood glucose levels. Description: Blood glucose in fasted rats. The data set is classed as in vivo, rat. As to conditions: fasted 24 hours; oral 10, 30 or 100 mg/kg.
In data set [2] the test system is ulcerogenic effects of aspirin. The experiment in a line: Protection against ulcerogenic effects of aspirin. The data set is classed as in vivo. To be noted: p.o.; aspirin 100 mg/kg p.o. Here is the method:
Compound III also protects against the ulcerogenic effects of aspirin, 100 mg/kg p.o. where dose-related effects are seen over the dose range of 10 to 1000 μg/kg, p.o. with an ED50 of 100 μg/kg. Compound III is also active in a phenylbutazone gastric ulcer model where an oral ED50 of 200 μg/kg is observed. […] "Cytoprotective," a term coined recently to describe the antiulcer effects of prostaglandins that are independent of antisecretory activity, [Robert, Advances in Prostaglandin and Thromboxane Research 2, 507 (1976); Miller et al., Gut 20, 75 (1979); Robert et al., Gastroenterology 72, 1121 (1977).] aptly characterizes the effects of compound III.

A short description of data set [3]: Cardiovascular effects in anesthetized dogs. The data set is classed as in vivo, dog. As to conditions: dog, in vivo; cumulative intravenous doses; read-out: ratio of cardiovascular-effect dose to maximally effective intravenous antiallergy dose.
Data set [4] deals with blood pressure, heart rate and pressor responses. Description: Cardiovascular effects in anesthetized dogs. To be noted: cumulative 5 and 15 mg/kg, i.v. The data set is classed as in vivo, dog.
Data set [5] can be described thus: Oral absorption and plasma concentrations, rats. The data set is classed as in vivo, rat. On the procedure: (§1) This is supported by the observations of plasma concentrations of 3 to 7 μg/ml one hour after oral administration of III, 50 to 300 mg/kg.
Data set [6] concerns IgE (reaginic antiserum) PCA reaction. The experiment in a line: Oral activity in PCA test, IgE. Type of data set: in vivo, rat. Here is the method:
The antiallergy property of the compounds of this invention is evaluated by the passive cutaneous anaphylaxis (PCA) test (Ovary, J. Immun., 81, 355, 1958). In the PCA test, normal animals are injected intradermally (i.d.) with antibodies contained in serum obtained from actively sensitized animals. The animals are then challenged intravenously with antigen mixed with a dye such as Evans' Blue. The increased capillary permeability caused by the antigen-antibody reaction causes the dye to leak from the site of the antibody injection. The test animals are then asphyxiated and the intensity of the reaction determined by measuring the diameter and intensity of the blue coloration on the inner surface of the animals' skin.
The PCA test is a measure of the anti-allergic (especially anti-asthmatic) activity of a compound. Compounds which inhibit a positive PCA test induced by the rat immunochemical counterpart of human immunoglobulin E (IgE), or reagin, are considered to have anti-allergic activity (C. Mota, Ann. N.Y. Acad. Sci., 103, 264 1963). (Reagin is primarily immunoglobulin E [IgE] and is the principal immunoglobulin responsible for allergic asthma, anaphylaxis, hay fever, food sensitivities and certain manifestations of drug sensitivities, although recent evidence ascribes to the IgG class of antibodies a significant role in the mediation of allergic diseases). Such compounds when administered to a sensitized subject, human or animal, prior to the time when the subject comes into contact with antigens or substances to which it is allergic, will prevent the allergic reaction which would otherwise occur. They, therefore, provide a method for the prophylactic treatment of allergy or anaphylactic reactions of a reagin mediated nature.
To put it another way, such compounds block the release of mediators resulting from the antigen-antibody (allergic) reaction as illustrated in the PCA test using rat homocytotropic antibody--a known correlate of human reaginic antibody. Inhibition of reaginic antigen-antibody reactions in rats, the test animal of the PCA test, is regarded as representative of inhibition of human reaginic antigen-antibody reactions which occur during allergic episodes.
The ability of agents to interfere with PCA reactions is measured in male Charles River Wistar rats, 170-210 g. Reaginic antiserum, rich in IgE antibodies, is prepared according to Petillo et al., Int. Arch. Allergy, 44, 309 (1973). Hyperimmune antiserum rich in IgG antibodies to hen egg albumin is prepared according to Orange et al., J. Exptl. Med., 127, 767 (1968). Forty-eight hours prior to antigen challenge, the reaginic antiserum is injected intradermally (i.d.) into the shaved skin of a normal rat's back; 5 hours before challenge the hyperimmune antisera is similarly injected. At a third site 60 mcg. histamine dihydrochloride and 0.5 mcg. serotonin creatinine sulfate are injected i.d. just prior to antigen challenge as a check for antihistaminic, antiserotonin and unspecific types of blockage; the compounds of the instant invention or saline are then administered i.v. and immediately followed by the challenge of 5 mg. egg albumen and 2.5 mg. Evans' Blue dye in saline. In the case of oral administration Evans' Blue dye and egg albumin are given 5 minutes after administration of the drug. Thirty minutes later the animals are asphyxiated using chloroform and the skin of the back removed and reversed for observation. A score is assigned each injection site equal to the product of the diameter of the site in mm. and a grade of 0.1, 0.5, 1, 2, 3 or 4 proportional to intensity of dye coloration. The scores for a given injection site are summed for each group of five animals and compared to the saline treated controls. The difference is expressed as percent blockage due to the compound employed. […]

The subject of data set [7] is dogs. The experiment in a line: Toleration study, oral, seven days, dogs. The data set is classed as in vivo, dog. On the procedure:
In toleration studies, III were given orally by gavage to dogs for a period of seven days at doses of 50, 150 and 300 mg/kg/day.

The nature of data set [8]: Oral absorption and plasma concentrations, dogs. Type of data set: in vivo, dog. Here is the method: as §1
Data set [9] in a line: Stability. The data set is classed as physicochemical. As to conditions: solid state, with standard diluents / inert ingredients, or in solution.
[10] abbreviates: one hour after oral 50 to 300 mg/kg, 60 min.
[11] abbreviates: oral, 7 days, 50, 150 and 300 mg/kg/day.

Structures are written as SMILES. Entries after “also recorded” stand apart in the source; their conditions may differ.

`O=C(Nc1nnn[nH]1)c1cnc2sc3c(n2c1=O)CCCC3` [Compound III, N-(5-Tetrazolyl)-1-oxo-1H-cyclohexenothiazolo[3,2-a]pyrimidine-2-carboxamide]: the blood glucose levels entry in data set [1] was “did not exhibit any changes in blood glucose levels”. In addition, the “dose range of dose-related effects, aspirin ulcer” value in data set [2] is 0.01 to 1 mg/kg. Moreover, in data set [3], the selectivity ratio fell in the range of 5 to 15. In data set [4], the blood pressure result is recorded as “transient hypotension”; the heart rate entry was “variable changes in heart rate”; the “pressor responses to epinephrine and bilateral carotid occlusion” value is listed as “diminished slightly”. In [5] (setting [10]), this compound yielded a plasma concentration of 3000 to 7000 ng/mL. Also, the oral absorption result in [5] (ratio of comparably effective oral and intravenous doses, PCA test) is on record as “good oral absorption”. Moreover, the inhibition in vivo at 3 mg/kg in [6] (Rattus norvegicus, IgE, oral, 3 mg./kg., read-out: Oral Activity (% of Protection) in the PCA Test, IgE) was determined as 47%. Moreover, the “oral activity” value in data set [6] (oral) is on record as “excellent oral activity”. In addition, the “dose range for antiallergy effects” value in [6] (rat, in vivo) lay within 1 to 10 mg/kg. The “emetic effect, capsule after meals” value in [7] (capsule after, rather than before, meals) is listed as “could be eliminated”. Moreover, in data set [7] (setting [11]), the gross pathological changes result is “No gross pathological changes were observed”; the “microscopic examination of liver, kidney, heart and lung” value is on record as “did not reveal any changes”. Besides, in data set [8] (setting [10]), the plasma concentration is 9000 to 26000 ng/mL. Besides, in data set [8] (suspensions or capsules), the oral absorption entry is recorded as “absorbed readily after oral administration”. The stability result in [9] is “highly stable in a pure solid state, as well as in the presence of standard pharmaceutical diluents and in solution; also recorded: exceptionally good stability”.

Source of the values: patent US4535081A, “Antiallergic and antiulcer 1-oxo-1H-thiazolo[3,2-a]pyrimidine-2-carboxamides and intermediates therefor” (Pfizer Inc., priority 1983, dated 1985).
